Tests used:
PC-3 cells [1] = assay: Fluorescence-based migration assay toward hrMCP-1; format: cell-based, human; conditions: for PC-3 cell migration, mean fluoresence±SD: 24 hours
Method: (§1) Flouresence-based Migration Assay—Cell migration was assessed using the Innocyte Cell Migration Assay (Calbiochem, Inc.) following the manufacturer's instructions. Briefly, increasing concentrations of MCP-1 (1-100 ng/mL) in the presence and absence of CCR2 inhibitors or neutralizing antibodies were added to the lower chamber of a 96 well plate. Cells were harvested by 0.5 μM EDTA release and resuspended at 2.5×10^5 cells/mL in serum free media. 2.5×10^4 cells were added to the upper chamber and allowed to migrate through the membrane with 8 μm pores for 24 hours at 37° C. and 5% CO2 atmosphere. Cells that migrated through the membrane were detached and labeled with Calcein AM and fluorescence was measured using fluorescent plate reader with excitation wavelength of 485 nm and emission wavelength of 520 nm. The experiments were repeated twice and each conditioned was performed in quadruplicate in each experiment.

VCaP cells [2] = assay: Fluorescence-based migration assay toward hrMCP-1; format: cell-based, human; conditions: for VCaP cell migration, mean fluoresence±SD: 24 hours
Method: as §1

PC-3 cells [3] = assay: Immunofluorescence of actin rearrangement and lamellipodial formation; format: cell-based, human
Method: Immunofluorescence-PC-3 cells were plated on glass coverslips and serum starved for 2 hours prior to stimulation. Cells were stimulated with MCP-1 (100 ng/mL) for 30 min in the presence or absence of identified inhibitors. Stimulation with SDF-1 (200 ng/mL) for 30 min was used as a positive control. Cells were fixed in 3.7% paraformaldehyde, methanol-free for 10 min at room temperature then permeablized with 0.5% Triton X-100 for 5 min at room temperature. Cells were rinsed twice with PBS and incubated for 30 minutes at room temperature with 3% bovine serum albumin (BSA) in PBS+0.05% Tween 20 to prepare cells for staining. Cells were incubated with Phalloidin AlexaFluor S68 (Molecular Probes, Inc.) at a 1:40 dilution in BSA solution to label actin. Cells were washed and mounted on coverslips with Pro-Long Antifade containing DAPI (Molecular Probes, Inc.) following manufacturer's instructions. Immunofluoresence was visualized using a multi-photon laser scanning microscope (MPLSM), consisting of a Mai Tai Broadband Ti:Sapphire laser, tuneable between 710-990 nm and a modified Olympus Fluoview 300 confocal microscope with long working distance water immersion IR objectives. Images were captured with a 60× objective (zoom ×2), 800 nm excitation wavelength, 605 nm and 520 nm centered emmission filters.

[4] = in vivo; cited from earlier work
[5] = system: HBME, HAEC and HDVMEC cells; assay: CCL2 synthesis by endothelial cells stimulated with PTHrP; format: cell-based, human; conditions: PTHrP 10 nM
Method: To determine the role of CCL2 in the development of prostate cancer-bone metastasis the level of CCL2 was analyzed by ELISA. […]

[6] = system: MC3T3-E1 subclone 4 (MC-4) OB cells; assay: CCL2 ELISA of osteoblast cells stimulated with PTHrP; format: cell-based, mouse; conditions: PTHrP 10 nM; day 7 and day 14 after induced differentiation
Method: VCaP cells were obtained from a lumbar vertebral metastatic lesion through the Rapid Autopsy program at the University of Michigan (Korenchuk et al., 2001; 2: 163-168; Loberg et al., Urol. One. 2006; 24:161-168). Cells were cultured in Dulbecco's Modified Eagle Medium supplemented with 10% Fetal Bovine Serum and 1% antibiotic/antimicotic and incubated at 37° C. PC3 prostate cancer cells were obtained from the American Type Culture Collection (Manassas, Va.). Cells were cultured in RPMI-1640 with L-Glutamine (Cambrex Bioproducts) and supplemented with 10% Fetal Bovine Serum and 1% antibiotic/antimicotic. Cells were incubated at 37° C. and subcultured according to ATCC specifications. MC3T3-E1 subclone 4 cells (MC-4) with high osteoblast differentiation potential were maintained and passaged every 4-5 days as previously described. Briefly, cells were grown in AMEM (Gibco) containing 100 units/ml penicillin and streptomycin and 10% FBS. MC3T3 cells were plated at 40,000-50,000 cells/cm2, and differentiation was induced with the addition of ascorbic acid (50 μg/ml) for 7 days. The culture medium was changed at days 1, 3, 5, and 7. […]
A mouse CCL2 specific ELISA kit was purchased from BD Biosciences (San Diego, Calif.) to measure the protein level of CCL2 in cell culture media. […] Values were calculated from standard curves set up for each assay. […]

[7] = system: primary mouse calvaria osteoblasts; assay: CCL2 ELISA of primary osteoblasts stimulated with PTHrP; format: cell-based; conditions: maximal response at 2 hours post-stimulation
Method: Primary mouse calvarial cells were isolated as previously described. Briefly, calvaria of newborn mice at day 4 were dissected, isolated, and subjected to sequential digestions in collagenase A (2 mg/ml) and 0.25% trypsin for 20, 40, and 90 minutes. Cells from the third digest were washed, counted, and plated in αMEM with 10% FBS containing 100 U/ml of penicillin and streptomycin. Primary cultures were used without passage. For differentiation, both MC-4 and primary cells were induced to differentiate and form mineralized matrix with the addition of ascorbic acid (50 μg/ml) and β-glycerophosphate (10 mM) with media replacement (every 2 days). In proliferation phase, MC-4 cells were serum staved for 24 h before addition of PTHrP or vehicle for indicated time. Otherwise, cells were treated with PTHrP or vehicle for indicated time without serum starvation.
A mouse CCL2 specific ELISA kit was purchased from BD Biosciences (San Diego, Calif.) to measure the protein level of CCL2 in cell culture media. Assays were performed as recommended by the manufacturer to determine levels of secreted CCL2 in MC-4 or primary cell culture media. Values were calculated from standard curves set up for each assay. The data are based on a triplicate experiments performed independently. Data are shown as mean +SEM in the figures.

PC-3Luc cells [8] = assay: Bioluminescent in vivo model of metastasis (Example 4, antibodies and/or docetaxel); design: species or system male SCID mice
Method: Bioluminescent imaging of PC-3Luc was preformed as previously described through The University of Michigan Small Animal Imaging Resource facility (MSAIR) (Loberg et al., 2006. Neoplasia. 8:578-586). Briefly, PC-3Luc cells were introduced into male SCID mice (5-6 wks of age) by intracardiac injections. Mice were serially imaged weekly for up to 12 weeks using a CCD IVIS system using a 50 mm lens (Xenogen Corp, Alameda, Calif.) and the results were analyzed using LIVING IMAGE software (Xenogen Corp.). Mice were separated into groups and treatment began at week 2 post-intracardiac injection and mice received 2 mg/Kg antibody twice weekly by intraperitoneal (i.p.) injection (for up to eight weeks) and/or 40 mg/Kg Taxotere i.p. injection once per week for three weeks. Mice were injected with luciferin (40 mg/mL) intraperitoneally and ventral images were acquired 15 min postinjection under 1.75% isofluorane/air anesthesia. Total tumor burden of each animal was calculated using regions of interest (ROIs) that encompassed the entire animal. Animals were sacrificed after week 6 image and individual organs were harvested and immediately placed in formalin.

PC-3 cells [9] = assay: WST-1 proliferation assay with MCP-1 with or without LY294002; format: cell-based, human; conditions: increasing concentrations, 24-96 hours
Method: (§2) Proliferation Assay-Cells were seeded at a density of 4×10^3 cells/well in a six well plate in regular media. Twenty four hours after seeding the media was changed with serum free media with increasing concentrations of MCP-1(1-100 ng/mL) in the presence of absence of LY294002 (1 μM). Cell growth was determined at 24, 48, 72, and 96 hours after seeding using the WST-1 assay (Pierce Biotech) following the manufacturer's instructions.

VCaP cells [10] = assay: as above; format: cell-based, human; conditions: increasing concentrations, 24-96 hours
Method: as §2

LNCaP cells = assay: WST-1 proliferation assay with MCP-1; format: cell-based, human; conditions: compared to vehicle treated controls
Method: as §2

PC-3 cells [11] = assay: Western blot of MCP-1 induced signaling; format: cell-based, human; conditions: MCP-1 100 ng/mL
Method: (§3) Western Blot-Cells were lysed in RIPA buffer (50 mM Tris-HCl, pH 7.4, 1% NP-40, 150 mM NaCl, 1 mM EDTA, 1 mM PMSF, 1 mM Na3VO4, 1 mM NaF, 1 uM okadaic acid and 1 ug/mL aprotinin, leupeptin and pepstatin). Proteins were separated under reducing conditions by SDS-PAGE and transferred onto nitrocellulose membrane. The membranes were blocked with 5% milk in TBST (0.1% Tween in TBS) for 1 hour at room temperature. They were incubated overnight at 4° C. with primary antibodies. Membranes were washed 3 times prior to incubation with HRP-conjugated secondary antibodies (Cell Signaling, Beverly, Mass.) for 1 hour at room temperature. Protein expression was visualized by ECL chemiluminescent (Promega, Madison, Wis.) and quantitated using Image J software (NCl, Bethesda, Md.).

VCaP cells [12] = assay: Western blot of MCP-1 induced signaling; format: cell-based, human; conditions: MCP-1 100 ng/mL, time dependent, maximal at 30 min; dose-dependent 0.1-100 ng/mL
Method: as §3

PC-3Luc cells [13] = assay: WST-1 proliferation assay with hrCCL2 and anti-CCL2 antibodies; format: cell-based, human; conditions: 72 hours, antibodies 30 μg/mL
Method: Cells were seeded at a density of 1×10^5 cells/ml for PC-3Luc cells in a 96 well plate in RPMI+10% FBS (FCS is mentioned in previous section). Twenty-four hours after seeding, media was changed to either serum-free RPMI or RPMI+10% FBS. Cell growth was determined 72 hours later using the WST-1 assay (Pierce Biotech, Inc.) following the manufacturer's instructions.

What does the source list for O=C1Nc2ccccc2C2(CCN(CCc3ccc(C(F)(F)F)cc3)CC2)O1 [RS-102895]?
effect on MCP-1 induced dose dependent migration of PC-3 cells (PC-3 cells [1]; MCP-1 1-100 ng/mL): attenuated; effect on MCP-1 induced dose dependent migration of VCaP cells (VCaP cells [2]; MCP-1 1-100 ng/mL): attenuated; effect on MCP-1 induced actin rearrangement and lamellipodial formation (PC-3 cells [3]; co-incubation with MCP-1 100 ng/mL, RS-102895 1 μM): did not prevent actin rearrangement and lamellipodial formation

For “VEGF TRAPR1R2: VEGF TRAP Fc fusion protein (Holash et al.)”, which AUC [4] is on record?
The AUC was 36.28 µg·days/mL.

And the Cmax [4]?
The Cmax was 16000 ng/mL.

For “PTHrP: Human Parathyroid hormone related protein (PTHrP)-(1-34) from Bachem”, which “synthesis of CCL2” value [5] is on record?
The value was “increased their respective synthesis of CCL2”.

And the CCL2 expression [6]?
The CCL2 expression was “rapidly increased within 2 hours”.

And the CCL2 expression [7]?
The CCL2 expression was “increased CCL2 expression”.

For CC(=O)O[C@@]12CO[C@@H]1C[C@H](O)[C@@]1(C)C(=O)[C@H](O)C3=C(C)[C@@H](OC(=O)[C@H](O)[C@@H](NC(=O)OC(C)(C)C)c4ccccc4)C[C@@](O)([C@@H](OC(=O)c4ccccc4)[C@H]21)C3(C)C [docetaxel, (2R,3S)-N-carboxy-3-phenylisoserine, N-tert-butyl ester, 13-ester with 5b-20-epoxy-12a,4,7b,10b,13a-hexahydroxytax-11-en-9-one 4-acetate 2-benzoate, trihydrate], which “animals of group counted at Wk 6 (tumor regression, Table 2)” value (PC-3Luc cells [8]; Wk 6 = First week after cessation of Taxotere) is on record?
The value was 2 of 9.

And the “animals of group counted at Wk 9 (tumor regression, Table 2)” value (PC-3Luc cells [8]; Wk 9 = First week after cessation of Antibodies)?
Its value is 1 of 9.

And the “total tumor burden at Day 35” value (PC-3Luc cells [8]; antibodies 2 mg/Kg i.p. twice weekly, docetaxel 40 mg/Kg i.p.)?
The value was 3.19 % of PBS-treated animals.

And the “tumor burden during and after therapy (docetaxel, combination, antibody maintenance)” value (PC-3Luc cells [8]; docetaxel 40 mg/Kg i.p. qw for 3 weeks, antibodies 2 mg/Kg i.p. twice weekly until week 8)?
The value was “decrease in tumor burden while receiving therapy”.

With “hrMCP-1: Human recombinant MCP-1 (CC chemokine ligand 2) from Chemicon International” as the compound, how does the “PC-3 cell migration, mean fluoresence±SD” value (PC-3 cells [1]; hrMCP-1 1 ng/mL) read?
The value was 83.53±2.981.

What about the “PC-3 cell migration, mean fluoresence±SD” value (PC-3 cells [1]; hrMCP-1 10 ng/mL) of the same compound?
The value was 142.2±2.678.

And the “PC-3 cell migration, mean fluoresence±SD” value (PC-3 cells [1]; hrMCP-1 100 ng/mL)?
Its value is 248.1±0.761.

And the “VCaP cell migration, mean fluoresence±SD” value (VCaP cells [2]; hrMCP-1 1 ng/mL)?
Its value is 130.6±2.145.

And the “VCaP cell migration, mean fluoresence±SD” value (VCaP cells [2]; hrMCP-1 10 ng/mL)?
Its value is 176.1±9.051.

What about the “VCaP cell migration, mean fluoresence±SD” value (VCaP cells [2]; hrMCP-1 100 ng/mL) of the same compound?
Its value is 296.5±2.681.

And the “proliferation in response to MCP-1” value (PC-3 cells [9])?
Its value is “enhanced proliferation”.

What about the “proliferation in response to MCP-1” value (VCaP cells [10]) of the same compound?
The value was “enhanced proliferation”.

What about the “proliferation in response to MCP-1” value (LNCaP cells) of the same compound?
The value was “no effect”.

What about the GSK3α/β phosphorylation (PC-3 cells [11]) of the same compound?
Its GSK3α/β phosphorylation is “no effect”.

And the “p70 S6 kinase phosphorylation” value (PC-3 cells [11])?
Its value is “induced p70 S6 kinase phosphorylation”.

What about the “Akt phosphorylation by immunoblot” value (PC-3 cells [11]; time dependent, maximal at 30 min, dose-dependent 0.1-100 ng/mL) of the same compound?
The value was “induced Akt phosphorylation”.

What about the “Akt phosphorylation by immunoblot” value (VCaP cells [12]) of the same compound?
Its value is “induced Akt phosphorylation”.

What about the “actin cytoskeleton: finger-like projections and lamellipodia” value (PC-3 cells [3]; MCP-1 100 ng/mL, 30 min, compared to control cells) of the same compound?
Its value is “increased formation”.

And the “cell viability (WST-1) as a measure of proliferation, mean ±SD” value (PC-3Luc cells [13]; CCL2 10 ng/mL)?
Its value is 136.2±7.81.

And the “cell viability (WST-1) as a measure of proliferation, mean ±SD” value (PC-3Luc cells [13]; CCL2 100 ng/mL)?
The value was 168.15±5.44.

Source: US20080118437A1, “Diagnosis and treatment O prostate cancer” (Regents of the University of Michigan, priority 2006, published 2008)
